Experimental data taken from the supplement of paper PMC11451515.

Tested on: P12-Ichikawa
Test: cell viability relative to DMSO control; higher = less cytotoxic
Conditions: 48 h
How it was run: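 NOMO1 or SEM (500 cells/well) or P12-Ichikawa (1000 cells/well) leukemia cells were adapted for at least four passages in each medium. They were seeded in 1536-well plates (5 μl) and pin-dosed with library compounds in DMSO over an 11-point threefold series, 47 μM to 0.79 nM. CellTiter-Glo One luminescence was read after 48 h at 37°C. Viability is the per-plate percentage relative to DMSO wells, with cell-free wells as background.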

[1] = HPLM + 10% dialyzed FBS, 0.000781 µM
[2] = HPLM + 10% dialyzed FBS, 0.00234 µM
[3] = HPLM + 10% dialyzed FBS, 0.00702 µM
[4] = HPLM + 10% dialyzed FBS, 0.0211 µM
[5] = HPLM + 10% dialyzed FBS, 0.0632 µM
[6] = HPLM + 10% dialyzed FBS, 0.19 µM
[7] = HPLM + 10% dialyzed FBS, 0.569 µM
[8] = HPLM + 10% dialyzed FBS, 1.71 µM
[9] = HPLM + 10% dialyzed FBS, 5.12 µM
[10] = HPLM + 10% dialyzed FBS, 15.4 µM
[11] = HPLM + 10% dialyzed FBS, 46.1 µM
[12] = RPMI 5 mM glucose + 10% FBS, 0.000781 µM
[13] = RPMI 5 mM glucose + 10% FBS, 0.00234 µM
[14] = RPMI 5 mM glucose + 10% FBS, 0.00702 µM
[15] = RPMI 5 mM glucose + 10% FBS, 0.0211 µM
[16] = RPMI 5 mM glucose + 10% FBS, 0.0632 µM
[17] = RPMI 5 mM glucose + 10% FBS, 0.19 µM
[18] = RPMI 5 mM glucose + 10% FBS, 0.569 µM
[19] = RPMI 5 mM glucose + 10% FBS, 1.71 µM
[20] = RPMI 5 mM glucose + 10% FBS, 5.12 µM
[21] = RPMI 5 mM glucose + 10% FBS, 15.4 µM
[22] = RPMI 5 mM glucose + 10% FBS, 46.1 µM
[23] = RPMI 5 mM glucose + 10% dialyzed FBS, 0.000781 µM
[24] = RPMI 5 mM glucose + 10% dialyzed FBS, 0.00234 µM
[25] = RPMI 5 mM glucose + 10% dialyzed FBS, 0.00702 µM
[26] = RPMI 5 mM glucose + 10% dialyzed FBS, 0.0211 µM
[27] = RPMI 5 mM glucose + 10% dialyzed FBS, 0.0632 µM
[28] = RPMI 5 mM glucose + 10% dialyzed FBS, 0.19 µM
[29] = RPMI 5 mM glucose + 10% dialyzed FBS, 0.569 µM
[30] = RPMI 5 mM glucose + 10% dialyzed FBS, 1.71 µM
[31] = RPMI 5 mM glucose + 10% dialyzed FBS, 5.12 µM
[32] = RPMI 5 mM glucose + 10% dialyzed FBS, 15.4 µM
[33] = RPMI 5 mM glucose + 10% dialyzed FBS, 46.1 µM

Compound `CC1(C)NC(=O)N(c2ccc([N+](=O)[O-])c(C(F)(F)F)c2)C1=O` has a cell viability [1] of 96.1%, a cell viability [2] of 87.3% and a cell viability [3] of 90.1%. For the same compound, the cell viability [4] was 89.5%, the cell viability [5] was 101% and the cell viability [6] was 90.9%. For the same compound, the cell viability [7] was 89.6%, the cell viability [8] was 87.8% and the cell viability [9] was 77.1%. The cell viability [10] was 85.2%, the cell viability [11] was 80% and the cell viability [12] was 88.4%. It also gave a cell viability [13] of 82.8%, a cell viability [14] of 82.5% and a cell viability [15] of 95.2%. The cell viability [16] was 96.2%, the cell viability [17] was 92% and the cell viability [18] was 90.1%. For the same compound, the cell viability [19] was 74.9%, the cell viability [20] was 82.8% and the cell viability [21] was 82.9%. For the same compound, the cell viability [22] was 75.8%, the cell viability [23] was 77.6% and the cell viability [24] was 81%. It also gave a cell viability [25] of 75.6%, a cell viability [26] of 80% and a cell viability [27] of 83.4%. It also gave a cell viability [28] of 85.7%, a cell viability [29] of 78.4% and a cell viability [30] of 77.2%. For the same compound, the cell viability [31] was 70.7%, the cell viability [32] was 75% and the cell viability [33] was 67.8%.

In the case of `O=C1CCc2cc(OCCCCc3nnnn3C3CCCCC3)ccc2N1`, the cell viability [1] is reported as 90.5%, the cell viability [2] is reported as 92.6% and the cell viability [3] is reported as 87.5%. It also gave a cell viability [4] of 95.7%, a cell viability [5] of 96.4% and a cell viability [6] of 97.6%. For the same compound, the cell viability [7] was 94.2%, the cell viability [8] was 95.6% and the cell viability [9] was 96%. For the same compound, the cell viability [10] was 97.4%, the cell viability [11] was 96.9% and the cell viability [12] was 78.9%. It also gave a cell viability [13] of 93.8%, a cell viability [14] of 89.2% and a cell viability [15] of 81%. For the same compound, the cell viability [16] was 91.2%, the cell viability [17] was 94.2% and the cell viability [18] was 98.1%. The cell viability [19] was 95.8%, the cell viability [20] was 85.2% and the cell viability [21] was 98.5%. The cell viability [22] was 99.2%, the cell viability [23] was 90.2% and the cell viability [24] was 88.1%. The cell viability [25] was 90%, the cell viability [26] was 94.6% and the cell viability [27] was 88.4%. It also gave a cell viability [28] of 91.8%, a cell viability [29] of 95.9% and a cell viability [30] of 90.2%. For the same compound, the cell viability [31] was 89.6%, the cell viability [32] was 88.1% and the cell viability [33] was 87.1%.

`COC1=CC2=C(C=C1CC3=C(F)C(=CC=C3)Cl)C(=O)\C(=C/N2[C@H](CO)C(C)C)C(O)=O` gave a cell viability [1] of 125%, a cell viability [2] of 123% and a cell viability [3] of 122%. For the same compound, the cell viability [4] was 107%, the cell viability [5] was 121% and the cell viability [6] was 119%. It also gave a cell viability [7] of 114%, a cell viability [8] of 115% and a cell viability [9] of 110%. The cell viability [10] was 95.9%, the cell viability [11] was 13.4% and the cell viability [23] was 116%. The cell viability [24] was 125%, the cell viability [25] was 124% and the cell viability [26] was 117%. The cell viability [27] was 125%, the cell viability [28] was 121% and the cell viability [29] was 119%. For the same compound, the cell viability [30] was 112%, the cell viability [31] was 103% and the cell viability [32] was 67.3%. For the same compound, the cell viability [33] was 10%.

With `Cc1n[nH]c(C)c1Cc1sc2c(c1C(=O)N1C[C@H](O)CO1)c(=O)n(C)c(=O)n2CC(C)C` the cell viability [1] was 116%, the cell viability [2] was 117% and the cell viability [3] was 119%. For the same compound, the cell viability [4] was 121%, the cell viability [5] was 109% and the cell viability [6] was 98.8%. For the same compound, the cell viability [7] was 93.4%, the cell viability [8] was 92.6% and the cell viability [9] was 94.3%. It also gave a cell viability [10] of 91.4%, a cell viability [11] of 83.4% and a cell viability [12] of 117%. For the same compound, the cell viability [13] was 118%, the cell viability [14] was 131% and the cell viability [15] was 120%. For the same compound, the cell viability [16] was 109%, the cell viability [17] was 107% and the cell viability [18] was 95.6%. For the same compound, the cell viability [19] was 95.8%, the cell viability [20] was 84.3% and the cell viability [21] was 89.9%. The cell viability [22] was 83.8%, the cell viability [23] was 113% and the cell viability [24] was 118%. For the same compound, the cell viability [25] was 114%, the cell viability [26] was 114% and the cell viability [27] was 107%. It also gave a cell viability [28] of 98.2%, a cell viability [29] of 91.6% and a cell viability [30] of 92%. It also gave a cell viability [31] of 94%, a cell viability [32] of 88.5% and a cell viability [33] of 83.7%.

For `CN1C(=O)C(=C/2N(C(=O)N(C3CC3)C(=O)C2=C1/NC4=CC=C(I)C=C4F)C5=CC=CC(=C5)NC(C)=O)\C`, the cell viability [1] was 121%, the cell viability [2] was 130% and the cell viability [3] was 122%. It also gave a cell viability [4] of 123%, a cell viability [5] of 113% and a cell viability [6] of 112%. For the same compound, the cell viability [7] was 101%, the cell viability [8] was 90.9% and the cell viability [9] was 12.8%. The cell viability [10] was 4.68% and the cell viability [11] was 4.28%.
